Test results taken from patent US7452549B2, “Synergistic antioxidant combination of delta tocols and polyphenols” (Nestec S.A., priority 2001, dated 2008).

System: LDL fraction
Assay: Oxidation of LDL in vitro (Cu2+-initiated, conjugated diene absorbance at 234 nm, lag phase)
Format: biochemical, human
Details: for synergistic antioxidant properties in combination with TRF or purified δ-tocol: non-polyphenolic antioxidants
Description: Oxidation of LDL In Vitro Plasma was obtained from the blood of healthy male and female volunteers and was frozen. […] Tubes were then centrifuged at 400 000 g at 15° C. for 2 hours. The top fraction (chylomicrons+VLDL) was removed. […] After centrifugation at 400 000 g at 15° C. for 2 hours, the LDL fraction floating on the top was collected. […] The fractions were supplemented with ethanolic solutions containing various extracts or with the same volume of pure ethanol (control). Oxidation was initiated by adding freshly-prepared CuSO4 solution (25 μmol/l final concentration) at 37° C. The kinetics of the oxidation of lipoprotein was determined by continuously monitoring the change in absorbance at 234 nm (at 37° C.) on a UV/VIS spectrophotometer, which correlates with the increase in conjugated diene absorbance. […] The time required for the formation of diene is defined as the lag phase. The longer the lag phase the better the protection of LDL against oxidation. […] Concentration-response curves for the LDL oxidation assay were plotted separately for each of the tocol preparations, and for the water-soluble antioxidant preparations (see FIGS. 1 to 5). In each experiment, the tocotrienol content of the tocol preparations (TRF) was standardised to 0.05 or 0.1 μg/ml.

Compound	synergistic antioxidant properties in combination with TRF or purified δ-tocol	synergistic effect with polyphenols in in vitro LDL oxidation studies	relative performance of δ-tocotrienol vs δ-tocopherol in in vitro LDL oxidation studies
CC(=O)N[C@@H](CS)C(=O)O [N-acetylcysteine]	same lack of synergy		
O=C1O[C@H]([C@@H](O)CO)C(O)=C1O [ascorbic acid]	not to have synergistic antioxidant properties		
O=C(O)CCCCC1CCSS1 (stereo not drawn) [α-lipoic acid]	same lack of synergy		
Cc1cc(O)cc2c1O[C@](C)(CCC[C@H](C)CCC[C@H](C)CCCC(C)C)CC2 [δ-tocopherol]		remarkable synergistic effects	
CC(C)=CCC/C(C)=C/CC/C(C)=C/CC[C@]1(C)CCc2cc(O)cc(C)c2O1 [δ-tocotrienol]		remarkable synergistic effects	performs marginally better
